The numbers were not newly measured in patent publication US20210393580A1, “PROCYANIDINS FOR THE TREATMENT OF ENDOTHELIAL DYSFUNCTION TRIGGERED BY COVID-19” (priority 2020, published 2021), which cites them from elsewhere.

The subject of data set [1] is iNOS (inducible nitric oxide synthase).
The subject of data set [2] is SARS proteases, spike protein and nonstructural proteins (NSP-9, 15). The conditions noted are these: Autodock vina; hydrogen bonds with active site residues, low binding energy.
The test system of data set [3] is wild-type severe acute respiratory syndrome coronavirus (wtSARS-CoV). The conditions noted are these: compounds fractionated from CC; for IC50: read-out: IC50, anti-wtSARS-CoV activity.

Regarding `O=C1CCC(Cc2ccc(O)c(O)c2)O1` (stereo not drawn) [M1, δ-(3,4-dihydroxy-phenyl)-γ-valerolactone], in data set [1], the excessive nitrite production entry is listed as “reducing” and the iNOS expression entry is listed as “reducing iNOS (inducible nitric oxide synthase) expression”.
As to `CCc1oc(=O)c(Cc2c(O)c(CC=C(C)C)c(O)c(C(C)=O)c2O)c(O)c1C` [arzanol], the “interaction with the SARS viral proteins” value in data set [2] is given as “significant interaction”.
Consider `COc1cc(/C=C/C(=O)O)ccc1O` [ferulic acid], for which, in data set [2], the “interaction with the SARS viral proteins” value is listed as “significant interaction”.
On to `O=c1c(-c2ccc(O)cc2)coc2cc(O)cc(O)c12` [genistein], for which the “interaction with the SARS viral proteins” value in data set [2] was “significant interaction”.
In the case of `Oc1cc(O)c2c(c1)O[C@@]1(c3ccc(O)c(O)c3)Oc3cc(O)c4c(c3[C@@H]2[C@H]1O)O[C@H](c1ccc(O)c(O)c1)[C@H](O)C4` [procyanidin A2], in data set [3], the “SI, anti-wtSARS-CoV activity” value is given as 37.35 and the IC50 (in general, the midpoint of a concentration-inhibition curve) was 29.9 ± 3.3 µM.
In the case of `Oc1cc(O)c2c(c1)O[C@H](c1ccc(O)c(O)c1)[C@H](O)[C@H]2c1c(O)cc(O)c2c1O[C@H](c1ccc(O)c(O)c1)[C@@H](O)C2` [procyanidin B1], in data set [3], the “SI, anti-wtSARS-CoV activity” value was 15.69 and the IC50 was 41.3 ± 3.4 µM.
Consider `Oc1ccc(C=Cc2cc(O)cc(O)c2)cc1` [resveratrol], for which the “interaction with the SARS viral proteins” value in data set [2] is “significant interaction”.
Consider `CC(C)c1cc2c(c(O)c1O)[C@@]13CCCC(C)(C)[C@@H]1[C@H](OC3=O)[C@H]2O` [rosmanol], for which the “interaction with the SARS viral proteins” value in data set [2] is reported as “significant interaction”.
As to `Cc1cc(O)c(C(C)C)cc1O` [thymohydroquinone], the “interaction with the SARS viral proteins” value in data set [2] is listed as “significant interaction”.
